From paper PMC13130965, “An Integrated Approach Combining Regulatory Tests in tg(cyp19a1b:GFP) Zebrafish Embryos to Assess Toxicity, Developmental Effects, and Estrogenic Activity of Chemicals: A Case Study with Bisphenol A Substitutes” (Environmental Science & Technology, 2026)
In brackets after ≈: the same amount, converted by molar mass. Like-named read-outs stand apart in the source and are kept apart here.

Key:
[1] = Refined Fish Embryo Acute Toxicity test (FET, OECD TG 236): mortality; assay type: in vivo, zebrafish (Danio rerio); conditions: tg(cyp19a1b:GFP), zebrafish, in vivo, other: waterborne exposure of embryos in test solution, LC50 (96h) experimental (FET test), nominal, brackets 95% CI
Procedure: (§1) Exposures were carried out in presaturated 24-well plates containing one embryo per well in 2 mL of test solution. The exposure was performed under semistatic conditions, with daily renewal of the test solution. The concentration ranges tested, along with a control with the same percentage of solvent alone, are recapitulated in Table S1. All exposure concentrations are reported as nominal. During the time course of the refined FET tests, embryos were observed after 8 h (coagulation), 24 h (lack of somite formation and nondetachment of the tail), and 48, 72, and 96 h of exposure (nondetection of the heartbeat). […] Moreover, hatching rate and nonlethal developmental effects (i.e., yolk deformity, growth retardation, spontaneous movement, edema, blood tail circulation, heart rate, pigmentation, head and tail/spinal malformations, and hemorrhage) were monitored daily. Tail/spinal malformations included lordosis, kyphosis, scoliosis, and reduced tail length.
(§2) This analysis considered all nonlethal developmental end points monitored in the refined FET assay (see above), except effects on hatching, pigmentation, spontaneous movement, and blood circulation. A teratogenic index (TI) was then calculated as the ratio LC50/EC50.
(§3) Baseline toxicity and experimental FET LC50 values were used to calculate toxic ratios (TR = predicted baseline toxicity LC50/experimental FET LC50). Compounds with TR < 10 were considered as baseline toxicants.

[2] = system: tg(cyp19a1b:GFP) zebrafish embryos; assay: Refined FET: developmental effects / malformations; assay type: in vivo, zebrafish (Danio rerio); conditions: nominal; for EC50: Danio rerio, end of 96 h exposure, read-out: EC50 malformations (cumulative sublethal end points); for LOEC deformity of yolk: at least 10% of embryos affected
Procedure: as §1, §2

[3] = system: cyp19a1b:GFP (brain aromatase) in tg(cyp19a1b:GFP) zebrafish embryos; assay: EASZY assay (OECD TG 250): GFP induction; assay type: in vivo, zebrafish (Danio rerio); conditions: Danio rerio, 96 h, 96 h; for EC50: read-out: EASZY relative EC50, nominal
Procedure: The tests were conducted according to OECD TG 250. Newly fertilized cyp19a1b-GFP eggs were transferred to glass crystallizing dishes and exposed for 96 h in a humidified climate chamber (27 ± 2 °C) under semistatic conditions with a total renewal of the test solutions each day. Each condition consisted of three crystallizing dishes, each containing 7 embryos and 15 mL of test medium. Embryos were exposed to a range of nonlethal concentrations of chemicals as determined previously based on the refined FET assays. The tested concentration ranges of bisphenols, along with a control with the same percentage of solvent alone, are summarized in Table S2. All exposure concentrations are reported as nominal. At the end of exposure, transgenic zebrafish embryos were collected for fluorescence imaging to quantify GFP intensity. At the end of the experiments, all living zebrafish embryos were euthanized as described above. […] ICI was added together with bisphenols from 0 to 4 dpf (days post fertilization). […] In all coexposure experiments, the final DMSO concentration was 0.02% (v/v).
For fluorescence imaging, GFP fold induction was expressed as mean ± SEM, and values were compared to the DMSO control using one-way ANOVA followed by Dunnett’s posthoc test. […]

[4] = system: zfERs / cyp19a1b:GFP in tg(cyp19a1b:GFP) zebrafish embryos; assay: EASZY coexposure with ER antagonist ICI 182,780; assay type: in vivo, zebrafish (Danio rerio); conditions: also with 48 h ICI pre-exposure
Procedure: The tests were conducted according to OECD TG 250. Newly fertilized cyp19a1b-GFP eggs were transferred to glass crystallizing dishes and exposed for 96 h in a humidified climate chamber (27 ± 2 °C) under semistatic conditions with a total renewal of the test solutions each day. Each condition consisted of three crystallizing dishes, each containing 7 embryos and 15 mL of test medium. Embryos were exposed to a range of nonlethal concentrations of chemicals as determined previously based on the refined FET assays. The tested concentration ranges of bisphenols, along with a control with the same percentage of solvent alone, are summarized in Table S2. All exposure concentrations are reported as nominal. At the end of exposure, transgenic zebrafish embryos were collected for fluorescence imaging to quantify GFP intensity. At the end of the experiments, all living zebrafish embryos were euthanized as described above. For coexposure experiments, embryos were exposed to bisphenols in the presence of 1 μM of the ER antagonist ICI 182,780 (ICI). ICI was added together with bisphenols from 0 to 4 dpf (days post fertilization). […] In all coexposure experiments, the final DMSO concentration was 0.02% (v/v).

zebrafish ERβ2 (zfERβ2) = zebrafish ERβ2 (zfERβ2) (Danio rerio, UniProt Q7ZU32); assay: ZELH-zfERβ2 luciferase reporter gene assay; assay type: cell-based; conditions: read-out: maximal efficacy
Chain of zebrafish ERβ2 (zfERβ2) (Q7ZU32 1-553): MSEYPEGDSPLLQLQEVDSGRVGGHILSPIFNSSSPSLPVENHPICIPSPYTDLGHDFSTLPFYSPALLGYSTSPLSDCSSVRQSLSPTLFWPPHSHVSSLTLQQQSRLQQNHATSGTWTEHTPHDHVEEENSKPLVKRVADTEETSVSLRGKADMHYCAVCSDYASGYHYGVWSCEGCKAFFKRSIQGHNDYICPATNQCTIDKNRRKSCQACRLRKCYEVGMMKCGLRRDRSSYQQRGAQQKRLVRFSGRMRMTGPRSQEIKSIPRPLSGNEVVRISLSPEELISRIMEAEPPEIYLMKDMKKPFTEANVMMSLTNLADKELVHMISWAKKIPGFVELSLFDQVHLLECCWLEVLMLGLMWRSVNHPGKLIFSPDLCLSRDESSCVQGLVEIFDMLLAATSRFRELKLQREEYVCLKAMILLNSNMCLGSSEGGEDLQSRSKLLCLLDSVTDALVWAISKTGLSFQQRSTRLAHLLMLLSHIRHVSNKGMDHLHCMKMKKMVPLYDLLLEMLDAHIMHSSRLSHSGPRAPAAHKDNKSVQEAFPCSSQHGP
Procedure: The ZELH-zfERs reporter cell line was previously established after a two-step stable transfection of the zebrafish hepatic cell line ZFL with the luciferase gene under the control of ERE (yielding the ZELH cell line that expresses no functional ER) and the zebrafish ER subtype β2 (yielding the ZELH-zfERβ2 cell line). Cells were cultured, exposed to chemicals for 72 h, and measured for luciferase activity exactly as previously described. , For each chemical, serial dilutions were prepared in DMSO and tested in three independent experiments. The final DMSO concentration in the culture medium was always 0.1% v/v. All tested concentrations refer to nominal concentrations.

[5] = cited from earlier work
hERβ [6] = system: hERβ; design: method as in Grimaldi et al.; conditions: HELN-hERβ; ref Grimaldi et al.; cited from earlier work
[7] = system: tg(cyp19a1b:GFP) zebrafish embryos; assay: Refined Fish Embryo Acute Toxicity test (FET, OECD TG 236): mortality; assay type: in vivo, zebrafish (Danio rerio); conditions: nominal, brackets 95% CI
Procedure: as §1, §2, §3

Zebrafish embryos = conditions: cited from earlier work
Adult Zebrafish = conditions: ref Ren et al. (2017); cited from earlier work
hERβ [8] = system: hERβ; design: method as in Pelch et al.; conditions: HepG2-hERβ; ref Pelch et al.; cited from earlier work
[9] = 120h-exposure, ref Qiu et al. (2021)
[10] = zebrafish embryos, ref Ren et al. (2017)

SMILES: Oc1ccc(C(=C(Cl)Cl)c2ccc(O)cc2)cc1 [BPC-Cl, 4-[2,2-dichloro-1-(4-hydroxyphenyl)ethenyl]phenol]
- LC50 at 96 h [1]: 4.18 µg/mL (≈ 14.9 µM)
- EC50 [2]: 1.28 µg/mL (≈ 4.55 µM)
- LOEC edema [2]: 0.99 mg/L
- LOEC heart rate disruption [2]: 8.89 mg/L
- LOEC hemorrhage [2]: 2.96 mg/L
- LOEC no blood tail circulation [2]: 8.89 mg/L
- LOEC no spontaneous movement [2]: 2.96 mg/L
- LOEC no/Less pigmentation [2]: 8.89 mg/L
- LOEC tail/spinal malformations [2]: 8.89 mg/L
- LOEC deformity of yolk [2]: 0.99 mg/L
- EC50 [3]: 0.015 µg/mL (≈ 0.0534 µM)
- effect of ICI 1 μM on bisphenol-induced GFP [4]: unable to block
- Emax (zebrafish ERβ2 (zfERβ2)): 61%
- Log Kow ([5]; ref ChemSpider): 4.25
- EC50 (hERβ [6]): 46 nM
- maximal efficacy (hERβ [6]): 35%

SMILES: Oc1ccc(Cc2ccc(O)cc2)cc1 [BPF, 4-[(4-hydroxyphenyl)methyl]phenol]
- LC50 at 96 h [1]: 35 µg/mL (≈ 175 µM)
- LC50 (96h) experimental (FET test) [7]: 35.07 [33.99;35.07] mg/L
- EC50 [2]: 17.2 µg/mL (≈ 85.9 µM)
- LOEC edema [2]: 15 mg/L
- LOEC head malformations [2]: 7.5 mg/L
- LOEC heart rate disruption [2]: 60 mg/L
- LOEC hemorrhage [2]: 7.5 mg/L
- LOEC no blood tail circulation [2]: 60 mg/L
- LOEC no spontaneous movement [2]: 60 mg/L
- LOEC tail/spinal malformations [2]: 30 mg/L
- LOEC deformity of yolk [2]: 15 mg/L
- EC50 [3]: 0.407 µg/mL (≈ 2.03 µM)
- Emax (zebrafish ERβ2 (zfERβ2)): 71%
- Log Kow ([5]; ref Adamovsky et al.): 2.91
- EC50 (hERβ [6]): 952 nM
- maximal efficacy (hERβ [6]): 100%
- Hatching success EC50(72h) (Zebrafish embryos; 4-days exposure, ref Moreman et al. (2017)): 14 (0.41) mg/L
- LOEC (body length, GnRH3 neurons, reproductive neuroendocrine-related genes and hormones) (Zebrafish embryos; [9]): 100 µg/L
- NOEC (body length, GnRH3 neurons, reproductive neuroendocrine-related genes and hormones) (Zebrafish embryos; [9]): 1 µg/L
- NOEC (developmental toxicity) (Zebrafish embryos; Wildtype (AB/TL), 1-6 dpf static + 6-9 dpf semistatic, ref Catron et al. (2018; 2019)): 15.3 µM
- LC50(96h) (Zebrafish embryos; Wildtype AB, 120h-exposure, ref Yang et al. (2017)): 10.030 µg/mL (≈ 50.1 µM)
- mortality (Zebrafish embryos; at 20 mg/L, ref Tišler et al. (2016)): 20%
- LC50 (Zebrafish embryos; read-out: LC50(96h), Wildtype AB, 96h-exposure, ref Arrokhman et al. (2023)): 120000 nM
- Edema EC50(48h) (Zebrafish embryos; ref Tišler et al. (2016)): 10.7 (9.4-12.2) mg/L
- Hatching inhibition EC50(72h) (Zebrafish embryos; ref Tišler et al. (2016)): 6.8 (5.8-8.5) mg/L
- Pigmentation EC50(48h) (Zebrafish embryos; ref Tišler et al. (2016)): 1.1 (0.92-1.3) mg/L
- LC50 (96h) literature (Zebrafish embryos; zebrafish embryos, 95% CI, ref Mu et al.): 19.6 [18.47–20.67] mg/L
- LC50 (96h) literature (Zebrafish embryos; zebrafish embryos, parentheses SEM, ref Moreman et al.): 32 (0.55) mg/L
- LC50 (96h) literature (Zebrafish embryos; zebrafish embryos, ref Arrokhman et al.): 24 mg/L (≈ 120 µM)
- LC50 (96h) literature (Zebrafish embryos; zebrafish embryos, ref Gao et al.): 24.5 mg/L (≈ 122 µM)
- LC50 (96h) literature (Zebrafish embryos; zebrafish embryos, ref Gu et al.): 7.40 mg/L (≈ 37 µM)
- Body length LOEC (Zebrafish embryos; [10]): 8 mg/L
- Body length NOEC (Zebrafish embryos; [10]): 6 mg/L
- LC50(24h) (Zebrafish embryos; [10]): 9.13 µg/mL (≈ 45.6 µM)
- LC50(48h) (Zebrafish embryos; [10]): 8.93 µg/mL (≈ 44.6 µM)
- LC50(72h) (Zebrafish embryos; [10]): 8.56 µg/mL (≈ 42.7 µM)
- LC50 (96h) literature (Zebrafish embryos; zebrafish embryos, ref Ren et al.): 7.40 mg/L (≈ 37 µM)
- LC50(24h) (Adult Zebrafish): 10.10 µg/mL (≈ 50.4 µM)
- LC50(48h) (Adult Zebrafish): 9.86 µg/mL (≈ 49.2 µM)
- LC50(72h) (Adult Zebrafish): 9.51 µg/mL (≈ 47.5 µM)
- LC50(96h) (Adult Zebrafish): 9.51 µg/mL (≈ 47.5 µM)

SMILES: C=CCOc1ccc(S(=O)(=O)c2ccc(O)cc2)cc1 [BPS-MAE, 4-(4-prop-2-enoxyphenyl)sulfonylphenol]
- LC50 at 96 h [1]: 20.1 µg/mL (≈ 69.1 µM)
- EC50 [2]: 6.84 µg/mL (≈ 23.6 µM)
- LOEC edema [2]: 33.3 mg/L
- LOEC heart rate disruption [2]: 33.3 mg/L
- LOEC no blood tail circulation [2]: 33.3 mg/L
- LOEC no spontaneous movement [2]: 33.3 mg/L
- LOEC no/Less pigmentation [2]: 33.3 mg/L
- LOEC tail/spinal malformations [2]: 33.3 mg/L
- minimal effective concentration ([3]; read-out: EASZY LOEC (GFP induction), nominal): 0.625 µg/mL
- EC50 [3]: 0.327 µg/mL (≈ 1.13 µM)
- effect of ICI 1 μM on bisphenol-induced GFP [4]: unable to block
- Log Kow ([5]; ref ChemSpider): 3.13
- maximal efficacy (hERβ [8]): 6%
